According to ChEMBL document CHEMBL1150256, “Kahalalides V-Y isolated from a Hawaiian collection of the sacoglossan mollusk Elysia rufescens” (2008):
Active and inactive are the calls of the source. The calls are words filed in the database; no cut-off is given here.

Tests used:
[1] = test system: Mus musculus; experiment: Antidepressant activity in Swiss Webster mouse at 0 to10 mg/kg, ip by forced swim test; assay type: functional, organism-based
[2] = test system: PC-3; experiment: Growth inhibition of human PC3 cells; assay type: functional
[3] = test system: DU-145; experiment: Growth inhibition of human DU145 cells; assay type: functional

Structure (SMILES) | Activity [1] | growth inhibition (GI) [2] [%] | growth inhibition (GI) [3] [%]
CC(C)CCC[C@H]1CC(=O)N[C@H](Cc2c[nH]c3ccccc23)C(=O)N2CCC[C@H]2C(=O)N[C@@H](CCCNC(=N)N)C(=O)O1 | inactive | – | –
C/C=C1\NC(=O)[C@H](Cc2ccccc2)NC(=O)[C@@H](C(C)C)NC(=O)[C@@H]([C@H](C)CC)NC(=O)[C@H](NC(=O)[C@H](NC(=O)[C@H](CCCN)NC(=O)[C@H]2CCCN2C(=O)[C@H](NC(=O)[C@@H](NC(=O)[C@@H](NC(=O)[C@H](NC(=O)CCCC(C)C)C(C)C)[C@@H](C)O)C(C)C)C(C)C)[C@H](C)CC)[C@H](C)OC(=O)[C@H](C(C)C)NC1=O [KAHALALIDE F] | – | 40 | 40
